In US11370796B2, “Substituted pyrazoles as LRRK2 inhibitors” (OSCOTEC INC., priority 2017, dated 2022) one finds IC50 data, which are given here for five molecules.

The target in this assay is LRRK2 (leucine-rich repeat kinase 2) (Homo sapiens (Human), UniProt Q5S007). Put plainly: Inhibitory effect on LRRK2 in vitro (LANCE kinase assay). Format: biochemical.
Where [1] appears, read: Table 1, class symbols, read-out: LRRK2 inhibition rate (IC50).
Setting [2] is: purified LRRK2, Table 6, read-out: IC50.

pIC50: −log10 of the molar value. Where two headings read alike, the source gives them in different places.

Sequence of LRRK2 (leucine-rich repeat kinase 2) (Q5S007 whole entry): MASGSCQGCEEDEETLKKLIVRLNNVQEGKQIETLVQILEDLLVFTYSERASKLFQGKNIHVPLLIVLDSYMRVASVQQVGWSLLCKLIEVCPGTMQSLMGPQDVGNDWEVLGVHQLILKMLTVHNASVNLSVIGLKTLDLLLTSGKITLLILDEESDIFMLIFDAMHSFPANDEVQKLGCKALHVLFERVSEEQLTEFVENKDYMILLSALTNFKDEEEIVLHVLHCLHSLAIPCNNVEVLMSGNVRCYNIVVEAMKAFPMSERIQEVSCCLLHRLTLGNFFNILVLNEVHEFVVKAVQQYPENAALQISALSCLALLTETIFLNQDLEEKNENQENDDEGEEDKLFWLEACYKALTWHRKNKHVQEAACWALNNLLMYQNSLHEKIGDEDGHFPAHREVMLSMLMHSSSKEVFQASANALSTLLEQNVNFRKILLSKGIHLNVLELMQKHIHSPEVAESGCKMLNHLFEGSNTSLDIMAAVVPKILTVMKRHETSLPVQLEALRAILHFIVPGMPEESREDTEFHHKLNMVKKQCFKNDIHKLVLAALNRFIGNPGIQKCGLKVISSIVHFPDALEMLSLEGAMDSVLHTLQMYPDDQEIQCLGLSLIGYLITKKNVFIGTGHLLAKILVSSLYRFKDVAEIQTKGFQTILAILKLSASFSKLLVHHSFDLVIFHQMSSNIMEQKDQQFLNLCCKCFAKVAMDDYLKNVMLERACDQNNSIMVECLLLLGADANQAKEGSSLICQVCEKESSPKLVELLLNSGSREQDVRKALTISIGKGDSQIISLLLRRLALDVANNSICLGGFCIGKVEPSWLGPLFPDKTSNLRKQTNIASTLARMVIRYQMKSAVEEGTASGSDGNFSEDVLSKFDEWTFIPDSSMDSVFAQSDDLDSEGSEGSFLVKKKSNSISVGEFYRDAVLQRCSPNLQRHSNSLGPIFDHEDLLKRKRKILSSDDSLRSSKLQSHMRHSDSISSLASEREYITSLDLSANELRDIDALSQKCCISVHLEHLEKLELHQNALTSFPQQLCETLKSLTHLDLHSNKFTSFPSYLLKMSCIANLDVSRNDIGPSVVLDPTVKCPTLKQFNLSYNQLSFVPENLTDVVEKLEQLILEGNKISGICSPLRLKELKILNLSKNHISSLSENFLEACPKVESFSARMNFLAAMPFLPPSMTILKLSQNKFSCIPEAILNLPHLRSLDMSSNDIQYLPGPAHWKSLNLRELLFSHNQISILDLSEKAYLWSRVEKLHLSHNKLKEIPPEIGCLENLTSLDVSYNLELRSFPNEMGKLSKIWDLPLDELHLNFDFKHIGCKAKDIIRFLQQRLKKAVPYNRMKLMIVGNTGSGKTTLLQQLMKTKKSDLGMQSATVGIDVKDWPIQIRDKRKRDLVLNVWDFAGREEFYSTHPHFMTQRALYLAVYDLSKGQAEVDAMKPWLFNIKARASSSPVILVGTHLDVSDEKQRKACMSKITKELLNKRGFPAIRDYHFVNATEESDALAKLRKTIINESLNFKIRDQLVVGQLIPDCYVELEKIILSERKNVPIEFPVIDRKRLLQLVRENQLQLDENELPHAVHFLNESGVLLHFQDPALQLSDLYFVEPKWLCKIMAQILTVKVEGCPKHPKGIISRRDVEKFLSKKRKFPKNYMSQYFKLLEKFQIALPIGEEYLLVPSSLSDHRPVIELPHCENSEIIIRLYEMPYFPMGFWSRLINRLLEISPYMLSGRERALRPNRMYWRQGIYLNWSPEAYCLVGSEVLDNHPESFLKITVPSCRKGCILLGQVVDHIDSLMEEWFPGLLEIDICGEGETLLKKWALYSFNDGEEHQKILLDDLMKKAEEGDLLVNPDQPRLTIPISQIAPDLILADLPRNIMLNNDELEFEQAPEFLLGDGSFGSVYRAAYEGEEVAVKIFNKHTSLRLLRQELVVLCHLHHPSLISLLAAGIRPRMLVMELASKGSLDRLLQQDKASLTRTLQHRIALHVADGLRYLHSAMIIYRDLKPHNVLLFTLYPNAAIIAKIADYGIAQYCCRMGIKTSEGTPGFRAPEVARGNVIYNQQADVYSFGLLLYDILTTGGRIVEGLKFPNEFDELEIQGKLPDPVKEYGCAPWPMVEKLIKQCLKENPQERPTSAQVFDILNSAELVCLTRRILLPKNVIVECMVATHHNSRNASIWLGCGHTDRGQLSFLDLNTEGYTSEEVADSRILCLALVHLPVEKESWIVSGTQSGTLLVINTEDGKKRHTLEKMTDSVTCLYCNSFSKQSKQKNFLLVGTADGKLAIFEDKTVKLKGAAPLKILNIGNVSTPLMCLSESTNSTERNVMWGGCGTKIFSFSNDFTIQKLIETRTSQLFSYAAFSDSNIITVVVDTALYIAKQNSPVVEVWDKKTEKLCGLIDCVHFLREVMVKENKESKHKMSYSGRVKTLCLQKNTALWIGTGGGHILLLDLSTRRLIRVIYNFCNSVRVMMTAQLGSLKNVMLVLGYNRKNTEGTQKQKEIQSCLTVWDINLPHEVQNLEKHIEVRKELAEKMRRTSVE

As a reminder, the pIC50 is the IC50 on a negative log10 scale, so that one unit is a factor of ten. `CCn1nc(Cl)c2cnc(Nc3cn(C4CCN(S(=O)(=O)C5CC5)CC4)nc3Cl)nc21` [Compound 47, 3-chloro-N-(3-chloro-1-(1-(cyclopropylsulfonyl)piperidin-4-yl)-1H-pyrazol-4-yl)-1-ethyl-1H-pyrazolo[3,4-d]pyrimidin-6-amine]: the negative logarithm of the IC50 (pIC50) was above 8.00 under setting [1] and 8.19 under setting [2].
Regarding `CCn1cc(Cl)c2cnc(Nc3cn(C4CC(C)OC(C)C4)nc3Cl)nc21` (stereo not shown) [Compound 19, 5-chloro-N-(3-chloro-1-(2,6-dimethyltetrahydro-2H-pyran-4-yl)-1H-pyrazol-4-yl)-7-ethyl-7H-pyrrolo[2,3-d]pyrimidin-2-amine], the pIC50 under setting [1] is 7.00 to 8.00.
As for `CS(=O)(=O)N1CCC(n2cc(Nc3ncc4c(Cl)cn(C5CC5)c4n3)c(Cl)n2)CC1` [Compound 30, 5-chloro-N-(3-chloro-1-(1-(methylsulfonyl)piperidin-4-yl)-1H-pyrazol-4-yl)-7-cyclopropyl-7H-pyrrolo[2,3-d]pyrimidin-2-amine], the pIC50 is above 8.00 under setting [1] and 8.69 under setting [2].
As for `CC(=O)N1CCC(n2ncc(Nc3ncc4c(Cl)cn(C)c4n3)c2Cl)CC1` [Compound 23, 1-(4-(5-chloro-4-(5-chloro-7-methyl-7H-pyrrolo[2,3-d]pyrimidin-2-ylamino)-1H-pyrazol-1-yl)piperidin-1-yl)ethanone], the pIC50 under setting [1] is 7.00 to 8.00.
Same read-out and setting: next, `Cn1ncc(Nc2ncc3c(Cl)cn(C)c3n2)c1Cl` [Compound 5, 5-chloro-N-(5-chloro-1-methyl-1H-pyrazol-4-yl)-7-methyl-7H-pyrrolo[2,3-d]pyrimidin-2-amine]: 7.00 to 8.00.
